The target of one series is T1, insulin receptor (Rattus norvegicus, UniProt P15127).
T1 construct: from tissue; host or cells: whole living rats (in vivo)
Briefly: acute Oral Glucose Tolerance Test (OGTT) in rats. Particulars: fasted rats, oral single dose 50, 100 and 200 mpk 4 hrs prior to glucose challenge (1 g/kg); glucose at 30, 60, 90, 120 min by glucometer. Format: in vivo. The method, then:
FIG. 1: The effect of inhibition of the insulin receptor was measured using an Oral Glucose Tolerance Test (OGTT). IGF1R Inhibitor A (4-[2-(3-chloro-phenyl)-2-hydroxy-ethylamino]-3-(4-methyl-6-morpholin-4-yl-1H-benzoimidazol-2-yl)-1H-pyridin-2-one) was tested in an acute OGTT study in rats: Fasted rats were orally dosed with Inhibitor A at 50, 100, and 200 mpk as a single dose for 4 hrs prior to glucose challenge (1 g/kg). Glucose was monitored at 30, 60, 90 and 120 minutes post glucose challenge using a glucometer.

The nature of series [1]: acute OGTT study of combination therapy using Metformin and Inhibitor A in rats. Format: in vivo. As for the experimental part:
FIG. 2: An acute OGTT study to determine the effects of combination therapy using Metformin and Inhibitor A on glucose-lowering was conducted in rats. In order to stabilize glucose levels, food was withdrawn for 1 hr prior to administration of any reagent. Glucose challenge was administered 2 hrs after the administration of Inhibitor A and plasma glucose monitored. Plasma glucose levels increased upon administration of the Inhibitor (200 mpk) to 150 mg/dl prior to glucose challenge and to 250 mg/dl post-glucose challenge.

SMILES strings stand for the structures.

T1 sequence (P15127 764-1383 limits assumed): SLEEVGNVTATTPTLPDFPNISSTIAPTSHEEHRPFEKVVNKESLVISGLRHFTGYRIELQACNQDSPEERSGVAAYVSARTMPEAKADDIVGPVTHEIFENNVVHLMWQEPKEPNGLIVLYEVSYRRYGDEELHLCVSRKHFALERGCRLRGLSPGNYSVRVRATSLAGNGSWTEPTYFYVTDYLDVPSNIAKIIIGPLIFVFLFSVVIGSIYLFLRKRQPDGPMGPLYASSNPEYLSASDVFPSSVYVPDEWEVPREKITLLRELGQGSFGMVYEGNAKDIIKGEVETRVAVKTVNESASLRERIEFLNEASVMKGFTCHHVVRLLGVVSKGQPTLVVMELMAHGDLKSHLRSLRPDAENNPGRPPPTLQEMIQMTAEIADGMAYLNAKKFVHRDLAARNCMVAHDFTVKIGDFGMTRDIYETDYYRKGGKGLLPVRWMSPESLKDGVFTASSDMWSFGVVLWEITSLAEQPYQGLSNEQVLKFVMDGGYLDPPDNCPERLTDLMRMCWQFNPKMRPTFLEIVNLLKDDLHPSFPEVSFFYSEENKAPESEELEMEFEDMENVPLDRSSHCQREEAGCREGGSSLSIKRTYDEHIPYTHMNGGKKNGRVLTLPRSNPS
T1 sequence (P15127 27-759 partner limits assumed): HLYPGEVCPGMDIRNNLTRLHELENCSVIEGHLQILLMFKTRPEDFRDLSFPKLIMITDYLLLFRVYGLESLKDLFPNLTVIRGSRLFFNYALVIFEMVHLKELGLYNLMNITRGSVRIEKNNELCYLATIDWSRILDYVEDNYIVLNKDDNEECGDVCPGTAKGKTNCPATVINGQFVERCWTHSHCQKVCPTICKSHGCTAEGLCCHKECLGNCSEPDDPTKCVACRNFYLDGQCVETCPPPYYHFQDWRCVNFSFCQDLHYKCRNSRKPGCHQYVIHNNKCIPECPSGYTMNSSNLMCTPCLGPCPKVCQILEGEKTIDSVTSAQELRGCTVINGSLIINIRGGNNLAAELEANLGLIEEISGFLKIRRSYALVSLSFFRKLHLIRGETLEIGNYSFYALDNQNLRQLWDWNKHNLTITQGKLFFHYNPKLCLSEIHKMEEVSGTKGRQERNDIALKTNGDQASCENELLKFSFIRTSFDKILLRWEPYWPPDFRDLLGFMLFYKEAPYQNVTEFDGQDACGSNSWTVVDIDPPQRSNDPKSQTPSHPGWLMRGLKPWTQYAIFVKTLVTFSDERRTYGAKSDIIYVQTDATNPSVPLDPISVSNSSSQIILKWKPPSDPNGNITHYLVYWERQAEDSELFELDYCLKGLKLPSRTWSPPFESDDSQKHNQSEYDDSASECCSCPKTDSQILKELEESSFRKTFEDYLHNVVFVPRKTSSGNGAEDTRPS

Consider `Cc1cc(N2CCOCC2)cc2[nH]c(-c3c(NCC(O)c4cccc(Cl)c4)cc[nH]c3=O)nc12` (stereo not shown) [Inhibitor A, 4-[2-(3-chloro-phenyl)-2-hydroxy-ethylamino]-3-(4-methyl-6-morpholin-4-yl-1H-benzoimidazol-2-yl)-1H-pyridin-2-one], for which the “effect on basal and post-glucose challenge glucose” value on insulin receptor is “more pronounced effect on basal and post-glucose challenge at higher drug concentrations”. For the same molecule, the “plasma glucose level post-glucose challenge” value in series [1] (rats, Inhibitor 200 mpk, glucose challenge 2 hrs after Inhibitor A) stood at 250 mg/dL. In addition, the “plasma glucose level prior to glucose challenge” value in series [1] (rats, Inhibitor 200 mpk, prior to glucose challenge) is 150 mg/dL.

Take `CN(C)C(=N)N=C(N)N` [Metformin, reference compound]: the “hyperglycemic effects of Inhibitor A after Metformin pretreatment” value in series [1] (rats pretreated for 1 hr with Metformin 450 mpk, then Inhibitor A 200 mpk) is “completely ameliorated”.

(Values after US20050075358A1, “Methods for treating IGF1R-inhibitor induced hyperglycemia” (priority 2003, published 2005).)
